Calls of active or inactive are those of the source. No cut-off for these calls is given here.
molecular target: T1, Histone-lysine N-methyltransferase SETD7 (Homo sapiens) (UniProt Q8WTS6); experiment: Inhibition of human recombinant SET7/9 in cell free system assessed as monomethylation of histone H3 Lys4 residue after 1 hr in presence of 2 uM AdoMet
T1 sequence (whole entry): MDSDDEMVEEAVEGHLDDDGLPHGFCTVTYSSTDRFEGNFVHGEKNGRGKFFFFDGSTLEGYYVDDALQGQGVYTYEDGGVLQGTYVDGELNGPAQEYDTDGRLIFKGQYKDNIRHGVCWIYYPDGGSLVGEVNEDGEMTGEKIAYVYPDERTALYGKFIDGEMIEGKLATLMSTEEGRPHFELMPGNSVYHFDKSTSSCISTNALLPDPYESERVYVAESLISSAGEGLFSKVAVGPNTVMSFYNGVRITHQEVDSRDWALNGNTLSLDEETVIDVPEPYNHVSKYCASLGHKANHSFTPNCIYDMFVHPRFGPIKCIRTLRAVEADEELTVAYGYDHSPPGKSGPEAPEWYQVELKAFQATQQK

| Compound | inhibition |
| --- | --- |
| CCCCCCN(CC[C@H](N)C(=O)O)C[C@H]1O[C@@H](n2cnc3c(N)ncnc32)[C@H](O)[C@@H]1O | inactive |
| CCCCCCNCCN(CC[C@H](N)C(=O)O)C[C@H]1O[C@@H](n2cnc3c(N)ncnc32)[C@H](O)[C@@H]1O | Active |

Continued, values first:

| inhibition | Compound |
| --- | --- |
| Active | CCCNCCN(CC[C@H](N)C(=O)O)C[C@H]1O[C@@H](n2cnc3c(N)ncnc32)[C@H](O)[C@@H]1O |
| Active | CNCCN(CC[C@H](N)C(=O)O)C[C@H]1O[C@@H](n2cnc3c(N)ncnc32)[C@H](O)[C@@H]1O |
| Active | Nc1ncnc2c1ncn2[C@@H]1O[C@H](CN(CCNCCc2ccccc2)CC[C@H](N)C(=O)O)[C@@H](O)[C@H]1O |
